Data on 27 compounds can be found in US7935722B2 (Eli Lilly and Company, priority 2005, dated 2011).

SMILES strings stand for the structures. pEC50, pKi: −log10 of the molar value. Read-outs that look alike come from different tables or passages of the source.

The target of experiment [1] is T1, human AR (androgen receptor) (Homo sapiens, UniProt P10275).
T1 construct: expressed in transfected cells; host or cells: 293 cells (293-AR lysate)
T1 sequence (P10275 1-920): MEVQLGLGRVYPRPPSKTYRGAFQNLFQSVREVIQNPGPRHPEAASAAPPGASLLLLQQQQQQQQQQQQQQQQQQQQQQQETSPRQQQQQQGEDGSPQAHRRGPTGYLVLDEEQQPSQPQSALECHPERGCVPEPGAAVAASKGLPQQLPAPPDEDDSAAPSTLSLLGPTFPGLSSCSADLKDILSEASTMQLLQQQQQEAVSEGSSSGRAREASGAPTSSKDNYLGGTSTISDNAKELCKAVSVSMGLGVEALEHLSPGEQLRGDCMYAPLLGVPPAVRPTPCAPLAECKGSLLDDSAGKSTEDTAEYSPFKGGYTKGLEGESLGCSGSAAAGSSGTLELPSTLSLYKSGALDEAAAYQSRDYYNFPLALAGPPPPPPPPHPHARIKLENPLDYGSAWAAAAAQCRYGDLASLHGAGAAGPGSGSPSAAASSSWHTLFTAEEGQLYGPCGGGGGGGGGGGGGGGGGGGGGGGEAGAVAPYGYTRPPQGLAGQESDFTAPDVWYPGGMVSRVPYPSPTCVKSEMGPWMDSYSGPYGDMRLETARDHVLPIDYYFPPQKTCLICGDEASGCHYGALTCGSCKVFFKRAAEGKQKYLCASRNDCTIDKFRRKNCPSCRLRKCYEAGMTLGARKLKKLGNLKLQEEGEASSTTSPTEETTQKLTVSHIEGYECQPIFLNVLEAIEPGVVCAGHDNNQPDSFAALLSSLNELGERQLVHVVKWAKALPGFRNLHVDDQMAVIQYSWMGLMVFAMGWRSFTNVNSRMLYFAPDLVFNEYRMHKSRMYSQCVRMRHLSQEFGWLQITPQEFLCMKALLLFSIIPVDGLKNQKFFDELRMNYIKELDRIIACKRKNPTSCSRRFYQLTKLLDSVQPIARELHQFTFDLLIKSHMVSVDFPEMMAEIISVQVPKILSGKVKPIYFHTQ
Nature of the experiment: Steroid hormone nuclear receptor binding assay, AR binding. A digest of the protocol:
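Competition binding with lysates of 293 cells overexpressing human AR, [3H]-methyltrienolone tracer, compounds from about 0.01 nM to 10 μM, overnight at 4 °C; non-specific binding set with 500 nM methyltrienolone. Bound tracer counted by scintillation after charcoal-dextran separation; IC50 converted to Ki by Cheng-Prusoff using Kd from saturation binding.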

Experiment [2] has as its target T2, human androgen receptor (AR) (Homo sapiens, UniProt P10275).
T2 construct: expressed in transfected cells; host or cells: mouse myoblast C2C12 cells, transiently co-transfected
T2 sequence (P10275 1-920): T1 sequence (P10275 1-920)
Kind of experiment: C2C12 AR/ARE reporter assay. It is filed as cell-based. Summed up: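 Mouse C2C12 myoblasts co-transfected with AR/ARE reporter were plated in charcoal-stripped serum and treated for 48 h with compound from about 0.01 nM to 10 μM. Luciferase activity gave EC50 by 4-parameter logistic fit. Efficacy is expressed as % of maximal stimulation by 10 nM methyltrienolone.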
In general terms: In a reporter assay the amount or activity of a reporter protein is the signal.

[3] abbreviates: C2C12, read-out: C2C12 % Efficacy.
Where [4] appears, read: average of n trials, read-out: AR binding Ki.
The mark [5] stands for this setting: C2C12 AR/ARE reporter assay, average of n trials, read-out: C2C12 % Efficacy.
Setting [6] is: C2C12 AR/ARE reporter assay, average of n trials, read-out: C2C12 EC50.

In experiment [1], `CC(C)C(=O)N[C@@H]1CCc2c(c3cc(-c4cccnc4)ccc3n2Cc2cccc(F)c2)C1` [Example 133] had a negative logarithm of the Ki (pKi) of 8.34. In experiment [2], this compound gave a pEC50 of 8.12. Also, the Emax in experiment [2] (setting [3]) came to 66.4%.

With `CC(C)C(=O)NC1CCc2c(c3cc(-c4ccncc4)ccc3n2Cc2cccc(F)c2)C1` (stereo not drawn) [Example 134], the pKi in experiment [1] (setting [4]) is 6.42. Besides, the Emax in experiment [2] (setting [5]) amounted to 37.6%. Besides, in experiment [2] (setting [6]), the pEC50 is 6.44.

For `CC(C)C(=O)NC1CCc2c(c3cc(-c4ccc(F)nc4)ccc3n2Cc2cccc(F)c2)C1` (stereo not drawn) [Example 135], the pKi in experiment [1] (setting [4]) was 7.69. Also, in experiment [2] (setting [5]), the Emax is 66%. Besides, in experiment [2] (setting [6]), the pEC50 is 7.21.

Consider `Cc1ncc(-c2ccc3c(c2)c2c(n3Cc3cccc(F)c3)CCC(NC(=O)C(C)C)C2)cn1` (stereo not drawn) [Example 136], for which the pKi in experiment [1] was 7.86. The compound also had a negative-log EC50 (pEC50) in experiment [2] of 9.15. Also, the Emax in experiment [2] (setting [3]) was found to be 90.4%.

Regarding `CC(C)C(=O)NC1CCc2c(c3cc(-c4cncnc4)ccc3n2Cc2cccc(F)c2)C1` (stereo not drawn) [Example 137], the pKi in experiment [1] was 7.79. This compound showed a pEC50 in experiment [2] of 7.76. Further, the Emax in experiment [2] (setting [3]) worked out at 79.4%.

Take `CC(C)C(=O)NC1CCc2c(c3cc(-c4cccnn4)ccc3n2Cc2cccc(F)c2)C1` (stereo not drawn) [Example 138]: the negative-log Ki (pKi) in experiment [1] (setting [4]) was 7.33. For the same compound, in experiment [2] (setting [5]), the Emax came out at 86.8%. Moreover, the pEC50 in experiment [2] (setting [6]) is 7.51.

As to `Cc1ccc(-c2ccc3c(c2)c2c(n3Cc3cccc(F)c3)CCC(NC(=O)C(C)C)C2)nn1` (stereo not drawn) [Example 139, N-[9-(3-Fluoro-benzyl)-6-(6-methyl-pyridazin-3-yl)-2,3,4,9-tetrahydro-1H-carbazol-3-yl]-isobutyramide], the pKi in experiment [1] (setting [4]) was 7.46. Besides, the Emax in experiment [2] (setting [5]) was 96.9%. For the same compound, the negative-log EC50 (pEC50) in experiment [2] (setting [6]) is 7.71.

Regarding `CC(C)C(=O)NC1CCc2c(c3cc(-c4cnc(N)s4)ccc3n2Cc2cccc(F)c2)C1` (stereo not drawn) [Example 140], in experiment [1], the pKi was 7.54. The pEC50 in experiment [2] is 7.36. Moreover, the Emax in experiment [2] (setting [3]) turned out to be 74.6%.

In the case of `CC(C)C(=O)N[C@@H]1CCc2c(c3cc(-c4cnc(N)s4)ccc3n2Cc2cccc(F)c2)C1` [Example 141], in experiment [1], the pKi is 8.00. For the same compound, the pEC50 in experiment [2] is 7.39. The Emax in experiment [2] (setting [3]) was found to be 102%.

For `CC(C)C(=O)NC1CCc2c(c3cc(-c4ccc(N)nc4)ccc3n2Cc2cccc(F)c2)C1` (stereo not drawn) [Example 142], in experiment [1] (setting [4]), the pKi is 7.50. Moreover, in experiment [2] (setting [5]), the Emax stood at 61.8%. Besides, in experiment [2] (setting [6]), the pEC50 is 7.63.

For the compound `COc1ccc2c(c1)c1c(n2Cc2ccccn2)CCC(NC(=O)C(C)C)C1` (stereo not drawn) [Example 143, N-(6-methoxy-9-pyridin-2-ylmethyl-2,3,4,9-tetrahydro-1H-carbazol-3-yl)-isobutyramide], the pKi in experiment [1] is 6.44. The compound also showed a pEC50 in experiment [2] of 6.45. Also, in experiment [2] (setting [3]), the Emax amounted to 80.3%.

In experiment [1], `COc1ccc2c(c1)c1c(n2Cc2cccnc2)CCC(NC(=O)C(C)C)C1` (stereo not drawn) [Example 144] had a pKi of 6.13. For the same compound, the pEC50 in experiment [2] is 6.56. Moreover, the Emax in experiment [2] (setting [3]) worked out at 41.4%.

In experiment [1], `COc1ccc2c(c1)c1c(n2Cc2ccncc2)CCC(NC(=O)C(C)C)C1` (stereo not drawn) [Example 145] had a pKi of 5.86. The negative logarithm of the EC50 (pEC50) in experiment [2] is 5.69. Besides, the Emax in experiment [2] (setting [3]) came out at 46.6%.

For the compound `CC(C)C(=O)NC1CCc2c(c3cc(C#N)ccc3n2Cc2ccccn2)C1` (stereo not drawn) [Example 146], the pKi in experiment [1] is 7.90. Further, the pEC50 in experiment [2] is 7.81. Besides, in experiment [2] (setting [3]), the Emax was 86.8%.

For the compound `CC(C)C(=O)NC1CCc2c(c3cc(C#N)ccc3n2Cc2cscn2)C1` (stereo not drawn) [Example 147, N-(6-Cyano-9-thiazol-4-ylmethyl-2,3,4,9-tetrahydro-1H-carbazol-3-yl)-isobutyramide], in experiment [1], the pKi is 7.53. In experiment [2], this compound showed a pEC50 of 7.10. In addition, in experiment [2] (setting [3]), the Emax was 102%.

With `CC(C)C(=O)NC1CCc2c(c3cc(C#N)ccc3n2Cc2ccc(Cl)s2)C1` (stereo not drawn) [Example 148, N-[9-(5-Chloro-thiophen-2-ylmethyl)-6-cyano-2,3,4,9-tetrahydro-1H-carbazol-3-yl]-isobutyramide], the negative-log Ki (pKi) in experiment [1] (setting [4]) was 8.14. Also, the Emax in experiment [2] (setting [5]) was 86.7%. The pEC50 in experiment [2] (setting [6]) was 7.62.

On to `CC(C)C(=O)NC1CCc2c(c3cc(C#N)ccc3n2Cc2nccs2)C1` (stereo not drawn) [Example 149, N-(6-Cyano-9-thiazol-2-ylmethyl-2,3,4,9-tetrahydro-1H-carbazol-3-yl)-isobutyramide], for which the pKi in experiment [1] (setting [4]) is 7.74. For the same compound, the Emax in experiment [2] (setting [5]) is 91.4%. Besides, the pEC50 in experiment [2] (setting [6]) was 7.75.

With `Cc1nc(Cn2c3c(c4cc(C#N)ccc42)CC(NC(=O)C(C)C)CC3)cs1` (stereo not drawn) [Example 150, N-[6-Cyano-9-(2-methyl-thiazol-4-ylmethyl)-2,3,4,9-tetrahydro-1H-carbazol-3-yl]-isobutyramide], the pKi in experiment [1] is 7.71. Besides, in experiment [2], the pEC50 was 7.01. In addition, in experiment [2] (setting [3]), the Emax amounted to 91.3%.

Consider `Cc1nc(Cn2c3c(c4cc(C#N)ccc42)C[C@H](NC(=O)C(C)C)CC3)cs1` [Example 151, (R)-N-[6-cyano-9-(2-methyl-thiazol-4-ylmethyl)-2,3,4,9-tetrahydro-1H-carbazol-3-yl]-isobutyramide], for which the pKi in experiment [1] is 7.91. For the same compound, the pEC50 in experiment [2] is 7.52. The Emax in experiment [2] (setting [3]) stood at 85.6%.

Take `Cc1nc(Cn2c3c(c4cc(C#N)ccc42)C[C@@H](NC(=O)C(C)C)CC3)cs1` [Example 152, (S)-N-[6-cyano-9-(2-methyl-thiazol-4-ylmethyl)-2,3,4,9-tetrahydro-1H-carbazol-3-yl]-isobutyramide]: the pKi in experiment [1] was 6.68. Further, in experiment [2], the pEC50 is 6.39. Also, in experiment [2] (setting [3]), the Emax came out at 61.1%.

In experiment [1], `CC(C)C(=O)NC1CCc2c(c3cc(C#N)ccc3n2Cc2csc(Cl)n2)C1` (stereo not drawn) [Example 153, N-[9-(2-Chloro-thiazol-4-ylmethyl)-6-cyano-2,3,4,9-tetrahydro-1H-carbazol-3-yl]-isobutyramide] showed a pKi of 8.11. The same compound gave a pEC50 in experiment [2] of 7.71. In experiment [2] (setting [3]), the Emax came to 93.3%.

`CC(C)C(=O)N[C@@H]1CCc2c(c3cc(C#N)ccc3n2Cc2csc(Cl)n2)C1` [Example 154, (R)-N-[9-(2-Chloro-thiazol-4-ylmethyl)-6-cyano-2,3,4,9-tetrahydro-1H-carbazol-3-yl]-isobutyramide] gave a pKi in experiment [1] of 8.66. The negative logarithm of the EC50 (pEC50) in experiment [2] is 8.36. In addition, in experiment [2] (setting [3]), the Emax came to 119%.

`CC(C)C(=O)NC1CCc2c(c3cc(C#N)ccc3n2Cc2cnc(Cl)s2)C1` (stereo not drawn) [Example 155, N-[9-(2-Chloro-thiazol-5-ylmethyl)-6-cyano-2,3,4,9-tetrahydro-1H-carbazol-3-yl]-isobutyramide] had a pKi in experiment [1] of 7.87. This compound also had a pEC50 in experiment [2] of 6.99. In experiment [2] (setting [3]), the Emax turned out to be 54.8%.

`Cc1csc(Cn2c3c(c4cc(C#N)ccc42)C[C@H](NC(=O)C(C)C)CC3)n1` [Example 156, (R)-N-[6-Cyano-9-(4-methyl-thiazol-2-ylmethyl)-2,3,4,9-tetrahydro-1H-carbazol-3-yl]-isobutyramide] showed a negative logarithm of the Ki (pKi) in experiment [1] of 7.97. The pEC50 in experiment [2] was 7.52. Further, the Emax in experiment [2] (setting [3]) was determined as 79.4%.

Take `CC(C)C(=O)NC1CCc2c(c3cc(C#N)ccc3n2Cc2ccsc2)C1` (stereo not drawn) [Example 157, N-(6-Cyano-9-thiophen-3-ylmethyl-2,3,4,9-tetrahydro-1H-carbazol-3-yl)-isobutyramide]: the pKi in experiment [1] (setting [4]) was 8.28. Also, the Emax in experiment [2] (setting [5]) was found to be 72.3%. Also, the pEC50 in experiment [2] (setting [6]) was 8.52.

In the case of `CC(C)C(=O)NC1CCc2c(c3cc(C#N)ccc3n2Cc2cccs2)C1` (stereo not drawn) [Example 158, N-(6-Cyano-9-thiophen-2-ylmethyl-2,3,4,9-tetrahydro-1H-carbazol-3-yl)-isobutyramide], the pKi in experiment [1] was 8.51. The pEC50 in experiment [2] is 8.35. Moreover, in experiment [2] (setting [3]), the Emax was determined as 124%.

`CC(C)C(=O)NC1CCc2c(c3cc(C#N)ccc3n2Cc2cncs2)C1` (stereo not drawn) [Example 159, N-(6-Cyano-9-thiazol-5-ylmethyl-2,3,4,9-tetrahydro-1H-carbazol-3-yl)-isobutyramide] gave a pKi in experiment [1] of 7.46. Besides, the pEC50 in experiment [2] was 7.45. The Emax in experiment [2] (setting [3]) was 80.9%.

A word on the pKi: it is the Ki on a negative log10 scale, so that one unit is a factor of ten. One may read the pEC50 as the EC50 on a negative log10 scale, so that one unit is a factor of ten.
